Results reported in patent US11130960B2, “Methods for conferring or enhancing herbicide resistance on plants and/or alga with protoporphyrinogen oxidase variants” (FARM HANNONG CO., LTD., priority 2014, dated 2021).

Legend:
[1] = system: CyPPO4; assay: Growth of transformed BT3(ΔPPO) E. coli in LB liquid medium (OD600); format: cell-based, Lyngbya sp. PCC 8106; conditions: 37° C., OD600 over culture time
Method: (§1) In Example 3, herbicide resistance of respective BT3(ΔPPO) strains transformed with the wild-type AtPPO1, mutant AtPPO1, CyPPO2, CyPPO4 or CyPPO8 gene was investigated on agar media containing different herbicides, and in this Example, herbicide resistance of the strains was investigated in LB liquid media containing different herbicides.
(§2) HV-50 autoclave from Hirayama, HS2100A electronic scale from Hansung Instrument, CB-30V clean bench from Jeio Tech, JSI-200CL incubator from JSR, MQ-200 photometer from Apogee, and 1210 type UV-visible spectrophotometer from Thermo Fisher Scientific were used. The autoclave was used under conditions of 121° C. and 15 minutes, and the incubator was used at 37° C. with lighting of 160˜200 μmol m^−2s^−1 for a culture time of 13.5 hours. The UV-visible spectrophotometer was used at 600 nm.
(§3) Tiafenacil (M.W. 511.87 g/mol), Saflufenacil (M.W. 500.85 g/mol), and Fomesafen (M.W. 438.76 g/mol) used in the experiment were purchased from Dongbu Farm Hannong Co., Ltd, Sigma, and Sigma, respectively. These drugs were prepared at 200 mM concentration in 100% acetone, and stored at −20° C., respectively. Luria-Bertani(LB) medium (10 g/L of Bacto-Tryptone, 5 g/L of Yeast extract, 10 g/L of sodium chloride) and an antibiotic Chloramphenicol (Duchefa) were used.
(§4) For seed culture of E. coli transformed with respective genes, single colonies thereof were cultured in 3 ml of LB broth containing chloramphenicol for 12 hours, and they were diluted with LB broth to absorbance (OD600) of 1.5. Next, chloramphenicol and 500 μl of the seed culture of the transformed E. coli were added to 250 ml of LB liquid medium, and 50 ml of the culture was added to each 250 ml-flask. Each flask was treated with varying concentrations (0, 10 μM, 50 μM, 100 μM) of herbicide stocks (Tiafenacil, Saflufenacil, Fomesafen), and then incubated at 37° C. and 200 rpm. Absorbance (OD600) was measured using a spectrophotometer every 1.5 hours. The experiment was repeated three times, and mean values thereof were given in a graph. Error bars represent standard error of three repeats.

[2] = target: T1, Mutant AtPPO1 (Arabidopsis thaliana, UniProt P55826, S305L/Y426M); assay: as above; format: cell-based; conditions: 37° C., OD600 over culture time
T1 construct: expressed in transfected cells; host or cells: E. coli BT3(ΔPPO), pACBB vector
Method: as §1, §2, §3, §4

[3] = target: T2, wild-type AtPPO1 (Arabidopsis thaliana, UniProt P55826); assay: as above; format: cell-based; conditions: 37° C., OD600 over culture time
T2 construct: expressed in transfected cells; host or cells: E. coli BT3(ΔPPO), pACBB vector
T2 sequence (P55826 35-537): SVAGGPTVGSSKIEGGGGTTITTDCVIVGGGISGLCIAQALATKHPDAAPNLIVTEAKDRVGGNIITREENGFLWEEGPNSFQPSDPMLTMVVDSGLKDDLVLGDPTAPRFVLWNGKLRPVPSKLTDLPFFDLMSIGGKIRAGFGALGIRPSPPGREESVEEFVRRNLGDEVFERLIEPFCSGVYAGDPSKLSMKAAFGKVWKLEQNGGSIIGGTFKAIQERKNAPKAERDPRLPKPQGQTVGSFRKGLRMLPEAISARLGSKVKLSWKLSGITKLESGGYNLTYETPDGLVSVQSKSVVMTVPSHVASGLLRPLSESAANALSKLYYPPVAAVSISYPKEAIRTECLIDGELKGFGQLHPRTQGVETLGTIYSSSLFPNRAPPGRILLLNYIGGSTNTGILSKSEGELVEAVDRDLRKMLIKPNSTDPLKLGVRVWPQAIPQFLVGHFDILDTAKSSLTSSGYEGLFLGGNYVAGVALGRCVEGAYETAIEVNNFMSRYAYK
Method: as §1, §2, §3, §4

[4] = system: CyPPO4 transformant; assay: Herbicide spray test on Arabidopsis thaliana T2 plants; format: in vivo; conditions: 2-3 ml of 0.5 μM Tiafenacil, 1 μM Saflufenacil, or 3 μM Fomesafen per plant
Method: (§5) To examine whether herbicide resistance traits are maintained in the next generations of plants, respective T2 generation plants of Arabidopsis thaliana which were transformed with CyPPO2, CyPPO4 and CyPPO8 genes were subjected to an herbicide resistance test. 2-3 ml of 0.5 μM Tiafenacil, 1 μM Saflufenacil, or 3 μM Fomesafen was sprayed onto each Arabidopsis thaliana plant grown for about 4 weeks.

[5] = system: CyPPO2 transformant; assay: as above; format: in vivo; conditions: 2-3 ml of 0.5 μM Tiafenacil, 1 μM Saflufenacil, or 3 μM Fomesafen per plant
Method: as §5

[6] = system: CyPPO8 transformant; assay: as above; format: in vivo; conditions: 2-3 ml of 0.5 μM Tiafenacil, 1 μM Saflufenacil, or 3 μM Fomesafen per plant
Method: as §5

[7] = system: CyPPO2; assay: Growth of transformed BT3(ΔPPO) E. coli in LB liquid medium (OD600); format: cell-based, Oscillatoria nigro-viridis PCC 7112; conditions: 37° C., OD600 over culture time
Method: as §1, §2, §3, §4

T1 sequence (P55826 35-537 S305L/Y426M): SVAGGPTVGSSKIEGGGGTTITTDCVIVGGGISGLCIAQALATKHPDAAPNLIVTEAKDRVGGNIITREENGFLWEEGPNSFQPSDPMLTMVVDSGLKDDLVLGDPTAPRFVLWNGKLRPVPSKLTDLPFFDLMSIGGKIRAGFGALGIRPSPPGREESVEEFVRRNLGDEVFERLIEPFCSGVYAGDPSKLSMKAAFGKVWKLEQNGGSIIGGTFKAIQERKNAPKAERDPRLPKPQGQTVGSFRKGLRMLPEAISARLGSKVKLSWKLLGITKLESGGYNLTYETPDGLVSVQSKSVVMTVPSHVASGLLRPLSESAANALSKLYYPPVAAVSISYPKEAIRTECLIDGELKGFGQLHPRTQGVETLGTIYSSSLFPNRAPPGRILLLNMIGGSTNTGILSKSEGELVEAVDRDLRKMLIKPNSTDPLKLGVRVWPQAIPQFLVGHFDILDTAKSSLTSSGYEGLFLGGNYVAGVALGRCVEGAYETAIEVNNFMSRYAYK

Row | SMILES | concentration by which the strain normally grew [1] | concentration by which the strain normally grew [2] | concentration at which the strain hardly grew [3] | outcome of plants at 7 days after spraying [4] | outcome of plants at 7 days after spraying [5] | outcome of plants at 7 days after spraying [6] | concentration by which the strain normally grew [7] | concentration at which growth inhibition was observed [2] | concentration at which the strain grew [2] | concentration at which growth inhibition began [3]
1 | CC(C)N(C)S(=O)(=O)NC(=O)c1cc(-n2c(=O)cc(C(F)(F)F)n(C)c2=O)c(F)cc1Cl [Saflufenacil] | ≤ 100 µM | ≤ 100 µM | ≥ 10 µM | continued to grow without damage | continued to grow without damage | continued to grow without damage | ≤ 100 µM |  |  | 
2 | COC(=O)CCNC(=O)C(C)Sc1cc(-n2c(=O)cc(C(F)(F)F)n(C)c2=O)c(F)cc1Cl (stereo not shown) [Tiafenacil] | ≤ 100 µM |  | ≥ 10 µM | continued to grow without damage | continued to grow without damage | continued to grow without damage | ≤ 100 µM | ≥ 50 µM | 10 µM | 
3 | CS(=O)(=O)NC(=O)c1cc(Oc2ccc(C(F)(F)F)cc2Cl)ccc1[N+](=O)[O-] [Fomesafen] | ≤ 100 µM | ≤ 100 µM |  | continued to grow without damage | continued to grow without damage | continued to grow without damage | ≤ 100 µM |  |  | 50 µM
